Results on 18 compounds are retold here after patent US8637510B2, “Morpholinothiazoles as alpha 7 positive allosteric modulators” (Janssen Pharmaceutica NV, priority 2009, dated 2014).

One data set deals with T1, human alpha 7-wt nAChR (Homo sapiens, UniProt P36544).
T1 construct: expressed in transfected cells
The experiment in a line: Ca2+ flux imaging (FDSS) (Protocol B). The class given is cell-based. Particulars: for Emax: efficacy of 100 μM choline defined as 100% in the absence of a PAM, read-out: a7-PAM-G_[33]_Eff_Curve_FI % Efficacy; for EC50: potentiation of 100 μM choline, compounds 0.01 μM to 30 μM, read-out: a7-PAM-G_[33]_pEC50 pEC50 (converted). In outline:
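Fluo-4AM-loaded cells expressing human α7-wt nAChR, in HBSS with 10 mM HEPES, 5 mM CaCl2, 0.1% BSA, received compound (0.01–30 μM), typically 10 min before 100 μM choline, with calcium flux read in real time. Potentiation is relative to choline alone (100%); EC50 from sigmoidal curves.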
(Calcium flux is commonly read through the fluorescence of an indicator in the cells.)

Data set [1] concerns the target T2, human alpha 7-wt nAChR-expressing GH4C1 cells (Homo sapiens, UniProt P36544).
T2 construct: expressed in transfected cells
The experiment in a line: Patch-clamp current recording (whole-cell voltage-clamp, PAM type classification). The class given is cell-based. The arrangement: key: Type 0 compounds minimally change the effect size of the current elicited by 1 mM choline.; Type 1 compounds enhance the effect size of the current elicited by 1 mM choline but minimally alter the kinetics of the receptor.; Type 2 compounds enhance the effect size of the current elicited by 1 mM choline while reducing the rate and/or the extent of desensitization.; Type 3 compounds enhance the effect size of the current elicited by 1 mM choline. When tested at higher concentrations up to 10 μM they completely inhibit desensitization; Type 4 compounds allow for an initial desensitization of the receptor followed by a re-opening of the receptor during agonist application. As to conditions: 1 mM choline. As for the experimental part:
The compounds of the present invention are classified as type 1-4, based on qualitative kinetic properties, as determined by whole-cell voltage-clamp recordings. This classification is based on the effect of an alpha 7 PAM compound, as described hereinbefore, on the signal elicited by an agonist application. In particular, said agonist is choline at a concentration of 1 mM. In a preferred experimental setting, said alpha 7 PAM compound and choline are simultaneously applied to the cell, as described hereinafter. Desensitization is defined as the closure of the receptor upon activation during the application of the agonist in whole-cell voltage-clamp electrophysiology measurements seen as the reduction of the […] current after initial activation by the agonist.
The definition of the PAM types 1-4 is described hereinafter: • Type 0 compounds minimally change the effect size of the current elicited by 1 mM choline. • Type 1 compounds enhance the effect size of the current elicited by 1 mM choline but minimally alter the kinetics of the receptor. In particular, the rate and the extent of desensitization and of deactivation of the receptor elicited by the agonist is not affected. The compound-modulated response to 1 mM choline, therefore, is close to a linear scaling of the 1 mM choline response in absence of the alpha 7 PAM compound. • Type 2 compounds enhance the effect size of the current elicited by 1 mM choline while reducing the rate and/or the extent of desensitization. Deactivation of the receptor is generally unaffected. • Type 3 compounds enhance the effect size of the current elicited by 1 mM choline. […] Deactivation of the receptor may be slowed down • Type 4 compounds allow for an initial desensitization of the receptor followed by a re-opening of the receptor during agonist application. At low-potency concentrations of the alpha 7 PAM compound, the agonist-induced activation, which is followed by desensitization, can still be separated from the compound-induced re-opening as an initial inward current-maximum. At higher potency concentrations of the alpha 7 PAM compound, the re-opening occurs faster than the closure due to desensitization so that the initial current-maximum disappears.
A compound was considered to have interesting PAM-like activity when the potentiation of the peak current was at least 200% compared to the control choline response (=100%). Such compounds are classified as belonging to a particular PAM type in the Experimental Part. Compounds not meeting the condition are not classified as belonging to a particular PAM-type.
The compounds also have a potentiating effect on the response to choline when measured by whole-cell patch clamp electrophysiology in GH4C1 cells stably over-expressing the human wild-type alpha 7 receptor.
Patch-clamp recording from mammalian cells has provided a powerful means of assessing the function of membrane-bound proteins thought to be subunits of ligand-gated ion channels. Activation of such proteins by endogenous or exogenous ligands cause opening of a pore associated with the receptor through which ions flow down their electrochemical gradient. In the case of the human alpha 7-wt nAChR-expressing GH4C1 recombinant cell line the preferential permeability to calcium of this receptor means that calcium flows into the cell upon activation by ACh, choline and other nicotinic ligands giving rise to a calcium current. Since this receptor rapidly desensitizes in the presence of agonist it is important that an application system is used which is capable of very rapid switching of solutions (<100 ms) to prevent partial or full desensitisation of receptor responses coincident with the time of agonist application. Consequently, a second convenient technique to assess the enhancement of nicotinic efficacy is a patch-clamp recording from human alpha 7-wt nAChR-expressing GH4C1 cells coupled with a rapid-application system. […]

T1 sequence (P36544 23-502): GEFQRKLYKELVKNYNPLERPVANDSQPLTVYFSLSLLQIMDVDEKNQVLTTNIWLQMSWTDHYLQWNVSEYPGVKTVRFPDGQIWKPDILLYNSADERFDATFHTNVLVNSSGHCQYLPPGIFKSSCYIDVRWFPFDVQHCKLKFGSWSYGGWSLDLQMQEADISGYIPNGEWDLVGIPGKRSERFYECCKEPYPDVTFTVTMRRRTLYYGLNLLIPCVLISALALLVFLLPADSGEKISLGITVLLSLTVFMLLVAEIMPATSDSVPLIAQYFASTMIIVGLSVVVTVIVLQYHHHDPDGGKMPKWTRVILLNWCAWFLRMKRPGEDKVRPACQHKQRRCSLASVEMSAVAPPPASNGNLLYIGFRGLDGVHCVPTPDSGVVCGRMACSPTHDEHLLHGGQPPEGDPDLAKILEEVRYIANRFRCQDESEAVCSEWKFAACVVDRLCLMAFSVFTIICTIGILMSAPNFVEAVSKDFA
T2 sequence (P36544 23-502): as above

For the compound `Cc1cc(-c2sc(N3C[C@@H](C)O[C@@H](C)C3)nc2CNC(=O)c2ccc(F)cc2)cc(C)n1` [Compound 8, N-[[2-[(2R,6S)-2,6-dimethyl-4-morpholinyl]-5-(2,6-dimethyl-4-pyridinyl)-4-thiazolyl]methyl]-4-fluoro-benzamide], on human alpha 7-wt nAChR, the Emax is 452% and the EC50 was 457 nM. In data set [1], the “PAM_Type PAM type” value is on record as 2.
Take `Cc1cc(-c2sc(N3C[C@@H](C)O[C@@H](C)C3)nc2CNC(=O)c2cccc(F)c2)ccn1` [Compound 93, N-[[2-[(2R,6S)-2,6-dimethyl-4-morpholinyl]-5-(2-methyl-4-pyridinyl)-4-thiazolyl]methyl]-3-fluoro-benzamide]: the melting point – broadly, the temperature, or range, at which the solid turns liquid – turned out to be 153 °C. Further, at human alpha 7-wt nAChR, the Emax was 477% and the EC50 is 479 nM.
The matching figures for `Cc1cc(-c2sc(N3C[C@@H](C)O[C@@H](C)C3)nc2CNC(=O)c2ncoc2C)cc(C)n1` [Compound 161, N-[[2-[(2R,6S)-2,6-dimethyl-4-morpholinyl]-5-(2,6-dimethyl-4-pyridinyl)-4-thiazolyl]methyl]-5-methyl-4-oxazolecarboxamide]: 201 °C, 509% and 5130 nM.
For the compound `Cc1cc(-c2sc(N3CCOCC3)nc2CNC(=O)c2ccc(F)cc2)cc(C)n1` [Compound 66, N-[[5-(2,6-dimethyl-4-pyridinyl)-2-(4-morpholinyl)-4-thiazolyl]methyl]-4-fluoro-benzamide], the melting point stood at 210 °C. The EC50 on human alpha 7-wt nAChR is 1200 nM.
For `Cc1cc(-c2sc(N3C[C@@H](C)O[C@@H](C)C3)nc2CNC(=O)c2csc(C)c2C)cc(C)n1` [Compound 164, N-[[2-[(2R,6S)-2,6-dimethyl-4-morpholinyl]-5-(2,6-dimethyl-4-pyridinyl)-4-thiazolyl]methyl]-4,5-dimethyl-3-thiophenecarboxamide] the same measures were 200 °C and 166 nM.
In turn, `Cc1cc(-c2sc(N3CCOCC3)nc2CNC(=O)c2cc(C)on2)cc(C)n1` [Compound 63, N-[[5-(2,6-dimethyl-4-pyridinyl)-2-(4-morpholinyl)-4-thiazolyl]methyl]-5-methyl-3-isoxazolecarboxamide] yielded a melting point of 197 °C. Moreover, on human alpha 7-wt nAChR, the Emax was 969% and the EC50 was 1820 nM.
On to `C[C@@H]1CN(c2nc(CNC(=O)CC3CC3)c(-c3ccncc3)s2)C[C@H](C)O1` [Compound 99, N-[[2-[(2R,6S)-2,6-dimethyl-4-morpholinyl]-5-(4-pyridinyl)-4-thiazolyl]methyl]-cyclopropaneacetamide], for which the melting point worked out at 178 °C. The EC50 at human alpha 7-wt nAChR was 7410 nM.
In turn, `Cc1cc(-c2sc(N3C[C@@H](C)O[C@@H](C)C3)nc2CNC(=O)c2onc(C)c2C)cc(C)n1` [Compound 171, N-[[2-[(2R,6S)-2,6-dimethyl-4-morpholinyl]-5-(2,6-dimethyl-4-pyridinyl)-4-thiazolyl]methyl]-3,4-dimethyl-5-isoxazolecarboxamide] showed a melting point of 192 °C. In addition, on human alpha 7-wt nAChR, the Emax turned out to be 669% and the EC50 was 1620 nM.
The matching figures for `CCCC(=O)NCc1nc(N2CCOCC2)sc1-c1cc(C)nc(C)c1` [Compound 67, N-[[5-(2,6-dimethyl-4-pyridinyl)-2-(4-morpholinyl)-4-thiazolyl]methyl]-butanamide]: 178 °C, 959% and 5370 nM.
Regarding `Cc1cc(-c2sc(N3C[C@@H](C)O[C@@H](C)C3)nc2CNC(=O)C2C(C)(C)C2(C)C)cc(C)n1` [Compound 43, N-[[2-[(2R,6S)-2,6-dimethyl-4-morpholinyl]-5-(2,6-dimethyl-4-pyridinyl)-4-thiazolyl]methyl]-2,2,3,3-tetramethyl-cyclopropanecarboxamide], the melting point worked out at 197 °C. Besides, on human alpha 7-wt nAChR, the Emax was found to be 663% and the EC50 was 60.3 nM.
`Cc1nocc1C(=O)NCc1nc(N2CCOCC2)sc1-c1ccncc1` [Compound 114, 3-methyl-N-[[2-(4-morpholinyl)-5-(4-pyridinyl)-4-thiazolyl]methyl]-4-isoxazolecarboxamide] displayed a melting point of 234 °C. Besides, the Emax at human alpha 7-wt nAChR was 313%.
For the compound `Cc1cc(-c2sc(N3C[C@@H](C)O[C@@H](C)C3)nc2CNC(=O)c2c(C)noc2C(F)(F)F)cc(C)n1` [Compound 163, N-[[2-[(2R,6S)-2,6-dimethyl-4-morpholinyl]-5-(2,6-dimethyl-4-pyridinyl)-4-thiazolyl]methyl]-3-methyl-5-(trifluoromethyl)-4-isoxazolecarboxamide], the melting point is 176 °C. The Emax on human alpha 7-wt nAChR came out at 142%.
Regarding `Cc1cc(-c2sc(N3CC(C)OC(C(F)(F)F)C3)nc2CNC(=O)CC2CC2)cc(C)n1` (single isomer, unassigned) [Compound 133, N-[[5-(2,6-dimethyl-4-pyridinyl)-2-[2-methyl-6-(trifluoromethyl)-4-morpholinyl]-4-thiazolyl]methyl]-cyclopropaneacetamide], the melting point was 156 °C. Besides, the EC50 on human alpha 7-wt nAChR was 115 nM.
With `Cc1ccc(-c2sc(N3C[C@@H](C)O[C@@H](C)C3)nc2CNC(=O)c2conc2C)cn1` [Compound 117, N-[[2-[(2R,6S)-2,6-dimethyl-4-morpholinyl]-5-(6-methyl-3-pyridinyl)-4-thiazolyl]methyl]-3-methyl-4-isoxazolecarboxamide], the melting point was 129 °C. In addition, the Emax on human alpha 7-wt nAChR came to 665%.
`Cc1cc(C(=O)NCc2nc(N3C[C@@H](C)O[C@@H](C)C3)sc2-c2ccncc2)no1` [Compound 100, N-[[2-[(2R,6S)-2,6-dimethyl-4-morpholinyl]-5-(4-pyridinyl)-4-thiazolyl]methyl]-5-methyl-3-isoxazolecarboxamide]: the melting point was found to be 182 °C. Besides, on human alpha 7-wt nAChR, the EC50 is 1820 nM.
The matching figures for `Cc1cc(-c2sc(N3C[C@@H](C)O[C@@H](C)C3)nc2CNC(=O)c2ccno2)cc(C)n1` [Compound 149, N-[[2-[(2R,6S)-2,6-dimethyl-4-morpholinyl]-5-(2,6-dimethyl-4-pyridinyl)-4-thiazolyl]methyl]-5-isoxazolecarboxamide]: 164 °C and 1620 nM.
The matching figures for `Cc1cc(-c2sc(N3CCOC(C)C3)nc2CNC(=O)c2cc(C)on2)cc(C)n1` (single isomer, unassigned) [Compound 79, N-[[5-(2,6-dimethyl-4-pyridinyl)-2-[(2S*)-2-methyl-4-morpholinyl)-4-thiazolyl]methyl]-5-methyl-3-isoxazolecarboxamide]: 166 °C and 1660 nM.
The matching figures for `Cc1cc(-c2sc(N3CCOC[C@@H]3C)nc2CNC(=O)CC(C)C)cc(C)n1` [Compound 189, N-[[5-(2,6-dimethyl-4-pyridinyl)-2-[(3S)-3-methyl-4-morpholinyl]-4-thiazolyl]methyl]-3-methyl-butanamide]: 151 °C and 1510 nM.
